# Test results reported in the NIST ThermoML archive (doi:10.1016/j.tca.2016.09.002).
# Numbers after ± are expanded uncertainties.
# Columns and labels:
# [1] = 101.33 kPa, Liquid, Hot wire method
# [2] = wn = mass fraction of the nth substance listed; conditions: 303.15 K, 100.7 kPa, Liquid, Hot wire method
compound,measurement,setting,value
O [water],thermal conductivity,[1]; 303.15 K,0.607 ± 0.015 W/m/K
same,thermal conductivity,[1]; 313.15 K,0.621 ± 0.016 W/m/K
same,thermal conductivity,[1]; 323.15 K,0.631 ± 0.016 W/m/K
C[C@H](CCC(=O)[O-])[C@H]1CC[C@H]2[C@@H]3CC[C@@H]4C[C@H](O)CC[C@]4(C)[C@H]3C[C@H](O)[C@]12C.[Na+] [sodium deoxycholate] + OCCO,thermal conductivity,[2]; w1 = 0.00761,0.259 ± 0.003 W/m/K
C[C@H](CCC(=O)[O-])[C@H]1CC[C@H]2[C@@H]3CC[C@@H]4C[C@H](O)CC[C@]4(C)[C@H]3C[C@H](O)[C@]12C.[Na+] [sodium deoxycholate] + O,thermal conductivity,[2]; w1 = 0.0085,0.617 ± 0.006 W/m/K
"OCCO [1,2-ethanediol]",thermal conductivity,[1]; 303.15 K,0.254 ± 0.003 W/m/K
same,thermal conductivity,[1]; 313.15 K,0.256 ± 0.004 W/m/K
same,thermal conductivity,[1]; 323.15 K,0.26 ± 0.003 W/m/K
